# Results as given in patent US12661410B2, “Compounds for targeted degradation of RET” (C4 Therapeutics, Inc., priority 2020, dated 2026).
# Residue numbers refer to the chain shown, from its start. Like-named read-outs stand apart in the source and are kept apart here.
# Tests used:
# RET (658-1114) = biological target: T1, RET (658-1114) (Homo sapiens, UniProt P07949); assay: HiBiT-Degradation, RET wild-type degradation assay (Nano-Glo HiBiT Lytic), 293T.144 cells; format: cell-based; settings: for Emax / DC50: 6.0 hours; for Emax: read-out: 293T.144 RET (658-1114) 6.0 hours (Emax); for DC50: read-out: 293T.144 RET (658-1114) 6.0 hours (DC50)
# T1 construct: 658-1114; expressed in transfected cells; host or cells: 293T.144 (293T cells, generated in-house)
# T1 sequence (P07949 658-1114): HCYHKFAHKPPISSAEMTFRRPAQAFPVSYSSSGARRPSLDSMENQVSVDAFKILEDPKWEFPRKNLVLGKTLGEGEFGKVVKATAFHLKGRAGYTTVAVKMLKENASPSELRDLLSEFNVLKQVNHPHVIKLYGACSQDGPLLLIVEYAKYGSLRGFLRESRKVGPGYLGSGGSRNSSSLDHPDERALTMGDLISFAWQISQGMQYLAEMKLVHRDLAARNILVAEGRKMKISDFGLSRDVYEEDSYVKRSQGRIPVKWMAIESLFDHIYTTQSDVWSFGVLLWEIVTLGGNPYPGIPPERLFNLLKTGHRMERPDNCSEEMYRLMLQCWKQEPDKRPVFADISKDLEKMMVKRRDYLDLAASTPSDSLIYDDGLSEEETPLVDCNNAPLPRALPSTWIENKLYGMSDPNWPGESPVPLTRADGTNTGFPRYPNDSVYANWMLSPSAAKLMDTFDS
# How it was run: (§1)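 6 h treatment, 293T.144 (WT) / 293T.165 (G810R) cells ectopically expressing HiBiT-fused RET KD; 11-pt half-log dilution, top 10 μM, n=2. Nano-Glo HiBiT lytic detection, luminescence. Output: DC50, Emax (% protein remaining).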
# RET(KD: 658-1114 G810R) = biological target: T2, RET(KD: 658-1114 G810R) (Homo sapiens, UniProt P07949, G810R); assay: HiBiT-Degradation, RET G810R degradation assay (Nano-Glo HiBiT Lytic), 293T.165 cells; format: cell-based; settings: for Emax / DC50: 6.0 hours; for Emax: % remaining protein, read-out: 293T.165 RET(KD: 658-1114 G810R) 6.0 hours (Emax); for DC50: read-out: 293T.165 RET(KD: 658-1114 G810R) 6.0 hours (DC50)
# T2 construct: 658-1114; expressed in transfected cells; host or cells: 293T.165 (293T cells, generated in-house)
# T2 sequence (P07949 658-1114 G810R): T1 sequence (P07949 658-1114) with G153R
# How it was run: as §1
# [1] = half-maximal degradation concentration
SMILES,293T.144 RET (658-1114) 6.0 hours (IP) [nM] (RET (658-1114)),Emax (RET (658-1114); % remaining protein) [%],DC50 (RET (658-1114); [1]) [nM],293T.165 RET(KD: 658-1114 G810R) 6.0 hours (IP) [nM] (RET(KD: 658-1114 G810R)),Emax (RET(KD: 658-1114 G810R)) [%],DC50 (RET(KD: 658-1114 G810R); [1]) [nM],293T.144 RET (658-1114) 6.0 hours (IP) [nM] (RET (658-1114); HiBiT-Degradation),DC50 (RET (658-1114); HiBiT-Degradation) [nM],Emax (RET (658-1114); HiBiT-Degradation) [%],293T.165 RET(KD: 658-1114 G810R) 6.0 hours (Emax) (RET(KD: 658-1114 G810R); HiBiT-Degradation),293T.165 RET(KD: 658-1114 G810R) 6.0 hours (IP) [nM] (RET(KD: 658-1114 G810R); HiBiT-Degradation),DC50 (RET(KD: 658-1114 G810R); HiBiT-Degradation) [nM]
"CC(C)(C)CC(=O)N1[C@@H]2COC[C@H]1CN(c1ccc(-c3nc(-c4cnn([C@H]5CC[C@@H](N6CCN(c7ccc(NC8CCC(=O)NC8=O)cc7F)CC6)CC5)c4)cn4ncc(C#N)c34)cn1)C2 (single isomer, unassigned) [Compound 158]",++++ (<50 nM = ++++),< 30,< 50,++++ (<50 nM = ++++),< 30,< 50,–,–,–,–,–,–
"N#Cc1cnn2cc(-c3cnn([C@H]4CC[C@H](N5CCN(c6cc(F)c(NC7CCC(=O)NC7=O)cc6F)CC5)CC4)c3)nc(-c3ccc(N4CC5COCC(C4)N5Cc4ccccn4)nc3)c12 (relative stereo) [Compound 161, 6-[1-[4-[4-[4-[(2,6-dioxo-3-piperidyl)amino]-2,5-difluoro-phenyl]piperazin-1-yl]cyclohexyl]pyrazol-4-yl]-4-[6-[9-(2-pyridylmethyl)-3-oxa-7,9-diazabicyclo[3.3.1]nonan-7-yl]-3-pyridyl]pyrazolo[1,5-a]pyrazine-3-carbonitrile]",++++ (<50 nM = ++++),< 30,< 50,++++ (<50 nM = ++++),< 30,< 50,–,–,–,–,–,–
"N#Cc1cnn2cc(-c3cnn(C4CCN(C(=O)CC5(O)CCN(c6ccc(NC7CCC(=O)NC7=O)cc6F)CC5)CC4)c3)cc(-c3ccc(N4CCC(c5cccc(O)c5)CC4)nc3)c12 (stereo not drawn) [Compound 198, 6-[1-[1-[2-[1-[4-[(2,6-dioxo-3-piperidyl)amino]-2-fluoro-phenyl]-4-hydroxy-4-piperidyl]acetyl]-4-piperidyl]pyrazol-4-yl]-4-[6-[4-(3-hydroxyphenyl)-1-piperidyl]-3-pyridyl]pyrazolo[1,5-a]pyridine-3-carbonitrile]",++++ (<50 nM = ++++),< 30,< 50,++++ (<50 nM = ++++),< 30,< 50,–,–,–,–,–,–
"CCC1(C(=O)NC(C)C)CCN(c2ccc(-c3nc(-c4cnn(C5CCN(C(=O)CN6CCC(c7ccc(NC8CCC(=O)NC8=O)cc7F)CC6)CC5)c4)cn4ncc(C#N)c34)cn2)CC1 (stereo not drawn) [Compound 53, 1-[5-[3-cyano-6-[1-[1-[2-[4-[4-[(2,6-dioxo-3-piperidyl)amino]-2-fluoro-phenyl]-1-piperidyl]acetyl]-4-piperidyl]pyrazol-4-yl]pyrazolo[1,5-a]pyrazin-4-yl]-2-pyridyl]-4-ethyl-N-isopropyl-piperidine-4-carboxamide]",–,–,–,–,< 50,< 50,++++ (< 50 nM = ++++),< 50,< 30,+++ (<50% = +++),++++ (< 50 nM = ++++),< 50
"COc1ccc(NC2CCN(c3ccc(-c4nc(-c5cnn([C@H]6CC[C@@H](N7CCN(c8c(F)cc(NC9CCC(=O)NC9=O)cc8F)CC7)CC6)c5)cn5ncc(C#N)c45)cn3)CC2)cn1 (single isomer, unassigned) [Compound 203, 6-(1-((1s, 4s)-4-(4-(4-((2,6-Dioxopiperidin-3-yl)amino)-2,6-difluorophenyl)piperazin-1-yl)cyclohexyl)-1H-pyrazol-4-yl)-4-(6-(4-((6-methoxypyridin-3-yl)amino)piperidin-1-yl)pyridin-3-yl)pyrazolo[1,5-a]pyrazine-3-carbonitrile]",++++ (<50 nM = ++++),< 30,< 50,++++ (<50 nM = ++++),< 30,< 50,–,–,–,–,–,–
"N#Cc1cnn2cc(-c3cnn([C@H]4CC[C@H](N5CCN(c6ccc(NC7CCC(=O)NC7=O)cc6F)CC5)CC4)c3)nc(-c3ccc(N4CC5COCC(C4)N5Cc4ccccn4)nc3)c12 (single isomer, unassigned) [Compound 157, 6-(1-((1r, 4r)-4-(4-(4-((2,6-dioxopiperidin-3-yl)amino)-2-fluorophenyl)piperazin-1-yl)cyclohexyl)-1H-pyrazol-4-yl)-4-(6-(9-(pyridin-2-ylmethyl)-3-oxa-7,9-diazabicyclo[3.3.1]nonan-7-yl)pyridin-3-yl)pyrazolo[1,5-a]pyrazine-3-carbonitrile]",++++ (<50 nM = ++++),< 30,< 50,++++ (<50 nM = ++++),< 30,< 50,–,–,–,–,–,–

# Second part, the compound after the results:
293T.144 RET (658-1114) 6.0 hours (IP) [nM] (RET (658-1114)),Emax (RET (658-1114); % remaining protein) [%],DC50 (RET (658-1114); [1]) [nM],293T.165 RET(KD: 658-1114 G810R) 6.0 hours (IP) [nM] (RET(KD: 658-1114 G810R)),Emax (RET(KD: 658-1114 G810R)) [%],DC50 (RET(KD: 658-1114 G810R); [1]) [nM],293T.144 RET (658-1114) 6.0 hours (IP) [nM] (RET (658-1114); HiBiT-Degradation),DC50 (RET (658-1114); HiBiT-Degradation) [nM],Emax (RET (658-1114); HiBiT-Degradation) [%],293T.165 RET(KD: 658-1114 G810R) 6.0 hours (Emax) (RET(KD: 658-1114 G810R); HiBiT-Degradation),293T.165 RET(KD: 658-1114 G810R) 6.0 hours (IP) [nM] (RET(KD: 658-1114 G810R); HiBiT-Degradation),DC50 (RET(KD: 658-1114 G810R); HiBiT-Degradation) [nM],SMILES
++++ (<50 nM = ++++),< 30,< 50,++++ (<50 nM = ++++),< 50,< 100,–,–,–,–,–,–,"CCC1(C(=O)NC(C)C)CCN(c2ccc(-c3nc(-c4cnn(C5CCN(C(=O)Cc6ccc(-c7ccc(NC8CCC(=O)NC8=O)cc7F)cc6)CC5)c4)cn4ncc(C#N)c34)cn2)CC1 (stereo not drawn) [Compound 89, 1-[5-[3-cyano-6-[1-[1-[2-[4-[4-[(2,6-dioxo-3-piperidyl)amino]-2-fluoro-phenyl]phenyl]acetyl]-4-piperidyl]pyrazol-4-yl]pyrazolo[1,5-a]pyrazin-4-yl]-2-pyridyl]-4-ethyl-N-isopropyl-piperidine-4-carboxamide]"
–,–,–,–,< 50,< 50,++++ (< 50 nM = ++++),< 50,< 30,+++ (<50% = +++),++++ (< 50 nM = ++++),< 50,"COC1(C(=O)NC(C)C)CCN(c2ccc(-c3cc(-c4cnn(C5CCN(C(=O)CN6CCC(c7ccc(NC8CCC(=O)NC8=O)cc7F)CC6)CC5)c4)cn4ncc(C#N)c34)cn2)CC1 (stereo not drawn) [Compound 6, 1-[5-[3-cyano-6-[1-[1-[2-[4-[4-[(2,6-dioxo-3-piperidyl)amino]-2-fluoro-phenyl]-1-piperidyl]acetyl]-4-piperidyl]pyrazol-4-yl]pyrazolo[1,5-a]pyridin-4-yl]-2-pyridyl]-N-isopropyl-4-methoxy-piperidine-4-carboxamide]"
++++ (<50 nM = ++++),< 30,< 50,+++ (<100 nM = +++),< 30,< 100,–,–,–,–,–,–,"N#Cc1cnn2cc(-c3cnn([C@H]4CC[C@@H](N5CCN(c6c(F)cc(NC7CCC(=O)NC7=O)cc6F)CC5)CC4)c3)nc(-c3ccc(N4CCC5(CC4)CCN5c4nccc(Cl)n4)nc3)c12 (single isomer, unassigned) [Compound 204, 4-(6-(1-(4-Chloropyrimidin-2-yl)-1,7-diazaspiro[3.5]nonan-7-yl)pyridin-3-yl)-6-(1-((1s, 4s)-4-(4-(4-((2,6-dioxopiperidin-3-yl)amino)-2,6-difluorophenyl)piperazin-1-yl)cyclohexyl)-1H-pyrazol-4-yl)pyrazolo[1,5-a]pyrazine-3-carbonitrile]"
–,–,–,–,< 30,< 100,++++ (< 50 nM = ++++),< 50,< 30,++++ (< 30% = ++++),++++ (< 50 nM = ++++),< 100,"N#Cc1cnn2cc(-c3ccc(N4CCN(C(=O)CN5CCC(c6ccc(NC7CCC(=O)NC7=O)cc6F)CC5)CC4)cc3)cc(-c3ccc(N4CCN(Cc5ccccn5)CC4)nc3)c12 (stereo not drawn) [Compound 28, 6-(4-(4-(2-(4-(4-((2,6-Dioxopiperidin-3-yl)amino)-2-fluorophenyl)piperidin-1-yl)acetyl)piperazin-1-yl)phenyl)-4-(6-(4-(pyridin-2-ylmethyl)piperazin-1-yl)pyridin-3-yl)pyrazolo[1,5-a]pyridine-3-carbonitrile]"
